Experimental data reported in patent US6576614B1, “Peptide analogs as irreversible interleukin-1β protease inhibitors” (Vertex Pharmaceuticals Incorporated, priority 1993, dated 2003).

Assays:
IL-1β protease = biological target: T1, IL-1β protease (Homo sapiens, UniProt P29466); assay: IL-1β protease inhibition activity (HPLC assay, substrate TRITC-AYVHDAPVRS-NH2); type: biochemical; conditions: partially purified IL-1β protease; 15 min preincubation with inhibitor at 37° C., 60 min reaction
T1 construct: Partially purified IL-1β protease is stored at −80° C
T1 sequence (P29466 120-297 limits assumed): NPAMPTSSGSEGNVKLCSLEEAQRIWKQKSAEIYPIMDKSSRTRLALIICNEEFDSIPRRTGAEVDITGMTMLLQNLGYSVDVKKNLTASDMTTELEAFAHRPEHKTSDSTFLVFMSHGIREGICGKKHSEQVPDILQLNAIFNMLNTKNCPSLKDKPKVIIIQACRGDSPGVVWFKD
T1 sequence (P29466 317-404 limits assumed): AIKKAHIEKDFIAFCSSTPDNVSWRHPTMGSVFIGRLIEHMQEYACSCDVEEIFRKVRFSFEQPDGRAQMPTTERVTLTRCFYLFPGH
Experimental: Compounds of the present invention were tested for IL-1β protease inhibition activity according to the following protocol:
Partially purified IL-1β protease is stored at −80° C., thawed on ice, and preincubated for 10 minutes at 37° C. with 2.5 mM dithiothreitol in a buffer solution containing 10 mM Tris-HCl (pH 8.0) and 25% (v/w) glycerol. Inhibitors are prepared as stock solutions in dimethyl sulfoxide (DMSO). The protease is preincubated with inhibitor in a volume of […] in a 1.5 ml polypropylene microcentrifuge tube for 15 minutes at 37° C. The volume of compound added to the assay is adjusted to yield a DMSO concentration in the preincubation of <15% (v/v). The enzyme assay is then initiated by the addition of substrate (TRITC-AYVHDAPVRS-NH2) to yield a final concentration of […] in a final volume of […]. The reaction are carried out for 60 minutes at 37° C. in the dark and are terminated by the addition of […] of 10% trifluoroacetic acid (TFA). Following the addition of […] of 0.1% TFA, the samples are analyzed by high pressure liquid chromatography using a reverse phase (C18) column and elution with an acetonitrile/water/FA gradient. Substrate and product are monitored by their absorbance at 550 nm and elute at 4.2 and 5.2 minutes, respectively.

[1] = tested on: mature IL-1β release from human monocytes; assay: Release of mature IL-1β from human monocytes (pulse chase assay); type: cell-based; conditions: inhibition of release of mature IL-1β; human monocytes activated with fixed S. aureus; 2-3 donors; read-out: in vivo IC50
Experimental: Compounds of the present invention were tested for their ability to block mature IL-1β release from cells (monocytes) as described in the following protocol:
Protocol for Monitoring Release of Mature IL-1β-From Human Monocytes
Human monocytes were isolated from heparinized leukopheresis units obtained through Biological Specialty Corporation (Lansdale, Pa.). Monocytes were purified by Ficoll-Hupaque (Pharmacia Fine Chemicals, Piscataway, N.J.) gradient centrifugation and more than 95% pure monocyte populations obtained by centrifugal elutriation. The assay was performed on duplicate samples of freshly isolated human monocytes, cultured in suspension at 37° C. and rotated gently in conical bottom polypropylene tubes (Sardstedt Inc., Princeton, N.J.). Human monocytes at a concentration of 5×10^6 cells/mL were resuspended in 1 mL of RPMI 1640 (a common tissue buffer from M.A. Bioproducts, Walkersyille, Md.) containing 1% fetal calf serum (FCS) (HyClone, Logan, Utah) and 50 μg/mL gentamycin (Gibco, Grand Island, N.Y.). The cells were treated either with a compound of the invention (i.e. test compound) or with a non-inhibitor (control compound, typically 0.03% DMSO) for 15 minutes and then activated with 0.01% fixed Staphylococcus aureus (The Enzyme Center, Malden, Mass.) for 1 hour. The cells were then centrifuged and resuspended in 1 mL of cysteine, methionine-free RPMI media containing 1% dialyzed FCS (Hyclone). The cells were pretreated with a test compound or control compound for 15 minutes after which 0.01% fixed S. aureus plus 100 μCi Tran 35-S label (ICN, Irvine, Calif.) was added and the cells incubated at 37° C. for 1 hour. After incubation, cells were centrifuged, washed once in phosphate buffer saline and resuspended in 1 ML RPMI containing 1% fetal calf serum The cells were again pretreated with a test or control compound for 15 minutes and then 0.01% S. aureus for 2 hours. At the end of the incubation, cells were centrifuged and supernates saved for immunoprecipitation. Cells were washed once in phosphate buffer saline and then lysed in RIPA, a continuous cell media buffer containing 2 mM phenylmethylsulfonyl fluoride, 10 mM iodoacetate, 1 μg/mL pepstatin A, 1 μg/mL leupeptin and 0.5 TIU aprotinin.
For the immunoprecipitations, an equal volume of 1% dry milk in RIPA buffer plus 50 μL of resuspended protein A sepharose CL-4B (Pharmacia, Piscataway, N.Y.) was added to supernates and 1 mL of 4% dry milk containing protein A sepharose CL-4B to cell lysates and samples rotated for 30 minutes at 4° C. Beads were then centrifuged down, samples transferred to fresh tubes and incubated overnight with 40 μg rabbit antihuman IL1B polyclonal antibody (Genzyme, Cambridge, Mass.). The IL-1β proteins were then precipitated with 70 μL protein A sepharose, resuspended in 60 μL SDS sample buffer and run on 15% […] gels. Autoradiography was performed on dried gels and the amount of radioactivity (counts per minute, cpm) quantitated using a Betascope 603 analyzer.
In the monocyte pulse chase assay, each test parameter was run in duplicate. Data was collected from the Beta Scope using a personal computer, then transferred to the VAX system for calculation of mean cpm and standard deviation of the mean. When test compounds were evaluated, the percent inhibition of release of mature IL1β was calculated as follows:
100×[1−(cells treated with stimuli+test compound−unstimulated cells)/(cells teed with stimuli+control compound−unstimulated cells)]
These % inhibition values were then used to calculate IC50 value for each compound. Since the human monocyte pulse chase assay uses primary cells from different donors, each test compound was run in 2-3 separate experiments, using monocytes from 2-3 different donors.

Compound | IC50 (IL-1β protease) [µM] | IC50 [1] [µM] | melting point [°C]
O=C(O)C[C@H](NC(=O)OCc1ccccc1)C(=O)COc1ccc(S(=O)(=O)N2CCOCC2)cc1F [Example 42, N-Benzyloxycarbonyl-L-aspartic acid 2-fluoro-4-(N-morpholinylsulfonamido)phenoxymethyl ketone] | 0.32 | – | 65 to 66
NC(=O)CNS(=O)(=O)c1ccc(Cl)c(C(=O)OCC(=O)[C@H](CC(=O)O)NC(=O)OCc2ccccc2)c1Cl [Example 52, N-Benzyloxycarbonyl-L-aspartic acid 3-(N-[2-aminoacetamidoyl]sulfonamido)-2,6-dichlorobenzoyloxymethyl ketone] | 0.06 | – | 54 to 56
O=C(O)C[C@H](NC(=O)OCc1ccccc1)C(=O)COC(=O)c1c(Cl)ccc(S(=O)(=O)N2CCOCC2)c1Cl [Example 53, N-Benzyloxycarbonyl-L-aspartic acid 2,6-dichloro-3-(N-morpholinylsulfonamido)benzoyloxymethyl ketone] | 0.09 | – | –
COC(=O)N[C@@H](C)C(=O)N[C@@H](CC(=O)O)C(=O)COC(=O)c1c(Cl)cccc1Cl [Example 54, N-Methoxycarbonyl-L-alanine-L-aspartic acid 2,6-dichlorobenzoyloxymethyl ketone] | 0.06 | – | –
COC(=O)N[C@@H](Cc1ccccc1)C(=O)N[C@@H](CC(=O)O)C(=O)COC(=O)c1c(Cl)cccc1Cl [Example 57, N-Methoxycarbonyl-L-phenylalanine-L-aspartic acid 2,6-dichlorobenzoyloxymethyl ketone] | 0.07 | – | –
CC(C)[C@H](NC(=O)OCc1ccccc1)C(=O)N[C@@H](CC(=O)O)C(=O)COC(=O)c1c(Cl)cccc1Cl [Example 61, N-Benzyloxycarbonyl-L-valine-L-aspartic acid 2,6-dichlorobenzoyloxy-methyl ketone] | – | 0.9 | –
CC(C)[C@H](NC(=O)OCc1ccccc1)C(=O)N[C@@H](C)C(=O)N[C@@H](CC(=O)O)C(=O)COC(=O)c1c(Cl)cccc1Cl [Example 63, N-Benzyloxycarbonyl-L-valine-L-alanine-L-aspartic acid 2,6-di-chlorobenzoyloxymethyl ketone] | – | 0.5 | –
O=C(O)C[C@H](NC(=O)c1ccco1)C(=O)COC(=O)c1c(Cl)cccc1Cl [Example 64, N-(2-Furonyl)carbonyl-L-aspartic acid 2,6-dichlorobenzoyloxymethyl ketone] | 0.14 | – | –
CN(C)Cc1ccc(C(=O)N[C@@H](CC(=O)O)C(=O)COC(=O)c2c(Cl)cccc2Cl)cc1 [Example 68, N-(4-N,N-dimethylaminomethyl)benzoyl-L-aspartic acid 2,6-dichlorobenzoyloxymethyl ketone] | 0.3 | – | 55 to 57
N-Methoxycarbonyl-L-valine-L-aspartic acid 2,6-dichlorobenzoyloxy-methyl ketone [Example 59] | – | 10 | –

Further lines, with some results ahead:

IC50 (IL-1β protease) [µM] | IC50 [1] [µM] | Compound | melting point [°C]
0.05 | 10 | O=C(O)C[C@H](NC(=O)OCc1ccccc1)C(=O)COC(=O)c1c(Cl)cccc1Cl [Example 38, N-benzyloxycarbonyl-L-aspartic acid 2,6-dichlorobenzoyloxymethyl ketone] | –
0.1 | – | O=C(O)C[C@H](NC(=O)OCc1ccccc1)C(=O)COC(=O)c1c(C(F)(F)F)cccc1C(F)(F)F [Example 40, N-Benzyloxycarbonyl-L-aspartic acid 2,6-ditrifluoromethyl benzoyloxymethyl ketone] | –
0.1 | – | O=C(O)C[C@H](NC(=O)OCc1ccccc1)C(=O)COc1c(Cl)cccc1Cl [Example 41, N-Benzyloxycarbonyl-L-aspartic acid 2,6 dichlorophenoxymethyl ketone] | –
– | ~100 | COc1cccc(OC)c1C(=O)OCC(=O)[C@H](CC(=O)O)NC(=O)OCc1ccccc1 [Example 45, N-Benzyloxycarbonyl-L-aspartic acid 2,6-dimethoxybenzoyloxy methyl ketone] | –
– | ~100 | O=C(O)C[C@H](NC(=O)OCc1ccccc1)C(=O)COC(=O)c1c(F)cccc1F [Example 48, N-Benzyloxycarbonyl-L-aspartic acid 2,6-difluorobenzoyloxymethyl ketone] | –
0.09 | – | CCCCNS(=O)(=O)c1ccc(Cl)c(C(=O)OCC(=O)[C@H](CC(=O)O)NC(=O)OCc2ccccc2)c1Cl [Example 49, N-Benzyloxycarbonyl-L-aspartic acid 3-(N-butylsulfonamido)-2,6-dichlorobenzoyloxymethyl ketone] | 48 to 50
– | 30 | O=C(O)C[C@H](NC(=O)c1ccco1)C(=O)COC(=O)c1c(Cl)ccc(S(=O)(=O)N2CCOCC2)c1Cl [Example 65, N-(2-Furonyl)carbonyl-L-aspartic acid 2,6-dichloro-3-(N-morpholinylsulfonamido)benzoyloxymethyl ketone] | –
– | 10 | O=C(O)C[C@@H](NC(=O)OCc1ccccc1)C(=O)COC(=O)c1c(Cl)cccc1Cl [Example 69, N-Benzyloxycarbonyl-D-aspartic acid 2,6-dichlorobenzoyloxymethyl ketone] | –
0.2 | – | O=C(O)C[C@H](NC(=O)COC(=O)c1c(Cl)cccc1Cl)C(=O)COC(=O)c1c(Cl)cccc1Cl [Example 70] | –
– | 5 | CCN(CC)S(=O)(=O)c1c(F)c(F)c(OCC(=O)[C@H](CC(=O)O)NC(=O)[C@@H](NC(=O)OCc2ccccc2)C(C)C)c(F)c1F [Example 71, N-Benzyloxycarbonyl-L-valine-L-aspartic acid 4-(N,N-diethyl-sulfonamido)-2,3,5,6-tetrafluorophenoxymethyl ketone] | –
0.08 | – | N-Methoxycarbonyl-L-aspartic acid 2,6-dichlorobenzoyloxymethyl ketone [Example 67] | –
